Target: T1, SorT (Sinorhizobium meliloti, UniProt Q92M24)
T1 construct: gene SMc04049; recombinant periplasmic SorT, purified as in Low et al. 2011; homodimer; 33 N-terminal residues not seen in the complex crystal
T1 sequence (Q92M24 32-399): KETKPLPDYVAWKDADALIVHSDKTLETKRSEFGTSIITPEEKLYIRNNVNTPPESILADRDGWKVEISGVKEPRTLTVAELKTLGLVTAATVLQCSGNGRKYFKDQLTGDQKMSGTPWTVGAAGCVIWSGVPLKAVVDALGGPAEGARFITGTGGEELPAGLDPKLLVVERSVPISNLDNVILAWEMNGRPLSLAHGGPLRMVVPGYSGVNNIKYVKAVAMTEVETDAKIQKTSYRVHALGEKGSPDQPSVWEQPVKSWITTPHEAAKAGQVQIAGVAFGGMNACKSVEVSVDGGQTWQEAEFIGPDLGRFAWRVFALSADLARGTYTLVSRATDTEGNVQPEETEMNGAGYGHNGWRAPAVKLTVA
Assay: sulfite dehydrogenase assay, SorU reduction at […] nm
Format: biochemical
Settings: electron acceptor SorU

O=S(O)O [sulfite]
sulfite dehydrogenase assay, SorU reduction at 550 nm: Sulfite dehydrogenase enzyme assays were carried out as described previously

Source: publication PMC4760952, “Structural basis of interprotein electron transfer in bacterial sulfite oxidation” (eLife, 2015)
